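48-hour exposure; five concentrations; linearly interpolated endpoints. The concentration for 50% growth inhibition is given as GI50.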 Active and inactive are the calls of the source. Rule as the data show it: active = GI50 up to about 1.1 µM and inactive = higher.
What was measured:
Experiment in all cases: NCI tumour cell line growth inhibition, 48 h
DLD-1 = tested on: DLD-1
DMS-114 = tested on: DMS-114
DMS-273 = tested on: DMS-273
HOP-18 = tested on: HOP-18
KM-20L2 = tested on: KM-20L2
LXFL 529 = tested on: LXFL 529
M19-MEL = tested on: M19-MEL
RXF 631 = tested on: RXF 631
XF498 = tested on: XF498

Measured: GI50

COc1ccc(C(=O)O/N=C2/CCC/C2=C\c2ccccc2)cc1
inactive: DLD-1 > 100 µM | DMS-114 > 100 µM | DMS-273 > 100 µM | HOP-18 > 100 µM | KM-20L2 > 100 µM | LXFL 529 > 100 µM | M19-MEL > 100 µM | RXF 631 > 100 µM | XF498 > 100 µM

COC1=CC(O)(CC(N)=O)c2ccccc2C1=O (stereo not drawn)
inactive: DLD-1 > 100 µM | DMS-114 > 100 µM | DMS-273 > 100 µM | HOP-18 > 100 µM | KM-20L2 > 100 µM | LXFL 529 > 100 µM | M19-MEL > 100 µM | RXF 631 > 100 µM | XF498 > 100 µM
